Assays:
[1] = human gut metagenome, 24 h, 2 µM
[2] = (§1) The drug is tested on WLS-038 corresponding to human gut metagenome with ENA study accession number: PRJEB37062 and ENA sample accession number: ERS12561745 for biotransformation under anaerobic condition. The drug concentrations were measured over 9 timepoints collected between 0 and 24 hours of incubation by liquid-chromatography-coupled mass spectrometry (LC–MS); settings: 2 µM
[3] = human gut metagenome, 24 h, 2 µM; remark: listed apart in the source
[4] = human gut metagenome, 24 h, 2 µM; remark: listed apart in the source
[5] = human gut metagenome, 24 h, 2 µM; remark: listed apart in the source
[6] = human gut metagenome, 24 h, 2 µM; remark: listed apart in the source
[7] = as §1, with “Z-001” for “WLS-038”, “mouse” for “human”, “ERS12561801” for “ERS12561745”; settings: 2 µM
[8] = as §1, with “WLS-170” for “WLS-038”, “ERS12561762” for “ERS12561745”; settings: 2 µM
[9] = human gut metagenome, 24 h, 2 µM; remark: listed apart in the source
[10] = as §1, with “WLS-052” for “WLS-038”, “ERS12561747” for “ERS12561745”; settings: 2 µM
[11] = human gut metagenome, 24 h, 2 µM; remark: listed apart in the source
[12] = human gut metagenome, 24 h, 2 µM; remark: listed apart in the source
[13] = as §1, with “WLS-069” for “WLS-038”, “ERS12561748” for “ERS12561745”; settings: 2 µM
[14] = human gut metagenome, 24 h, 2 µM; remark: listed apart in the source
[15] = as §1, with “Z-010” for “WLS-038”, “to” for “to human gut”, “ERS12561810” for “ERS12561745”; settings: 2 µM
[16] = as §1, with “Z-028” for “WLS-038”, “mouse” for “human”, “ERS12561827” for “ERS12561745”; settings: 2 µM
[17] = as §1, with “Z-027” for “WLS-038”, “to” for “to human gut”, “ERS12561826” for “ERS12561745”; settings: 2 µM
[18] = as §1, with “Z-023” for “WLS-038”, “to” for “to human gut”, “ERS12561822” for “ERS12561745”; settings: 2 µM
[19] = as §1, with “Z-029” for “WLS-038”, “rat” for “human”, “ERS12561828” for “ERS12561745”; settings: 2 µM
[20] = as §1, with “Z-022” for “WLS-038”, “mouse” for “human”, “ERS12561821” for “ERS12561745”; settings: 2 µM
Further: call rule not given here.

Structure (SMILES)	Bacterial Biotransformation [1]	Bacterial Biotransformation [2]	Bacterial Biotransformation [3]	Bacterial Biotransformation [4]	Bacterial Biotransformation [5]	Bacterial Biotransformation [6]	Bacterial Biotransformation [7]	Bacterial Biotransformation [8]	Bacterial Biotransformation [9]	Bacterial Biotransformation [10]	Bacterial Biotransformation [11]	Bacterial Biotransformation [12]	Bacterial Biotransformation [13]	Bacterial Biotransformation [14]	Bacterial Biotransformation [15]	Bacterial Biotransformation [16]	Bacterial Biotransformation [17]	Bacterial Biotransformation [18]	Bacterial Biotransformation [19]	Bacterial Biotransformation [20]
N[C@@H](Cc1ccc(N(CCCl)CCCl)cc1)C(=O)O	Compound metabolized	Compound metabolized	Compound metabolized	Compound metabolized	Compound metabolized	Compound metabolized	Compound metabolized	Compound metabolized	Compound NOT metabolized	Compound metabolized	Compound NOT metabolized	Compound NOT metabolized								
CN(C)CCc1c[nH]c2ccc(CS(=O)(=O)N3CCCC3)cc12 [ALMOTRIPTAN]	Compound metabolized	Compound NOT metabolized	Compound metabolized	Compound metabolized	Compound NOT metabolized	Compound NOT metabolized		Compound metabolized	Compound NOT metabolized	Compound NOT metabolized	Compound NOT metabolized	Compound NOT metabolized	Compound NOT metabolized	Compound NOT metabolized						
CCCCC(=O)O[C@]1(C(=O)CO)[C@@H](C)C[C@H]2[C@@H]3CCC4=CC(=O)C=C[C@]4(C)[C@@]3(F)[C@@H](O)C[C@@]21C [BETAMETHASONE VALERATE]	Compound metabolized	Compound metabolized	Compound metabolized	Compound metabolized	Compound NOT metabolized	Compound NOT metabolized		Compound metabolized	Compound NOT metabolized	Compound metabolized	Compound NOT metabolized	Compound metabolized	Compound metabolized	Compound metabolized						
Cc1nc(Nc2ncc(C(=O)Nc3c(C)cccc3Cl)s2)cc(N2CCN(CCO)CC2)n1 [DASATINIB ANHYDROUS]	Compound metabolized	Compound metabolized	Compound metabolized	Compound metabolized	Compound metabolized	Compound NOT metabolized		Compound metabolized	Compound metabolized	Compound metabolized	Compound metabolized	Compound NOT metabolized	Compound NOT metabolized	Compound metabolized						
CNCC[C@H](Oc1cccc2ccccc12)c1cccs1 [DULOXETINE]	Compound metabolized	Compound NOT metabolized	Compound metabolized	Compound NOT metabolized	Compound NOT metabolized	Compound NOT metabolized		Compound metabolized	Compound NOT metabolized	Compound NOT metabolized	Compound NOT metabolized	Compound NOT metabolized	Compound NOT metabolized	Compound NOT metabolized						
COCCCC/C(=N\OCCN)c1ccc(C(F)(F)F)cc1.O=C(O)/C=C\C(=O)O [FLUVOXAMINE MALEATE]	Compound metabolized	Compound NOT metabolized	Compound NOT metabolized	Compound metabolized	Compound metabolized	Compound NOT metabolized	Compound metabolized	Compound NOT metabolized	Compound NOT metabolized	Compound NOT metabolized	Compound metabolized	Compound NOT metabolized	Compound NOT metabolized	Compound NOT metabolized						
CN1CCN(C2=Nc3ccccc3Oc3ccc(Cl)cc32)CC1.O=C(O)CCC(=O)O [LOXAPINE SUCCINATE]	Compound NOT metabolized	Compound NOT metabolized	Compound NOT metabolized	Compound NOT metabolized	Compound NOT metabolized	Compound NOT metabolized		Compound NOT metabolized	Compound NOT metabolized	Compound NOT metabolized	Compound NOT metabolized	Compound NOT metabolized	Compound NOT metabolized	Compound NOT metabolized						
N#Cc1ccc2c(c1)N(CCCN1CCC(O)CC1)c1ccccc1S2 [PERICIAZINE]	Compound metabolized	Compound metabolized	Compound metabolized	Compound NOT metabolized	Compound NOT metabolized	Compound NOT metabolized		Compound metabolized	Compound NOT metabolized	Compound metabolized	Compound NOT metabolized	Compound NOT metabolized	Compound metabolized	Compound metabolized						
O=C1N=C([O-])NC1(c1ccccc1)c1ccccc1.[Na+] [PHENYTOIN SODIUM]	Compound metabolized	Compound NOT metabolized	Compound metabolized	Compound NOT metabolized	Compound metabolized	Compound NOT metabolized	Compound NOT metabolized	Compound metabolized	Compound NOT metabolized	Compound metabolized	Compound metabolized	Compound metabolized	Compound metabolized	Compound metabolized	Compound NOT metabolized	Compound NOT metabolized	Compound NOT metabolized	Compound NOT metabolized		
CNNCc1ccc(C(=O)NC(C)C)cc1 [PROCARBAZINE]	Compound metabolized	Compound NOT metabolized	Compound metabolized	Compound NOT metabolized	Compound NOT metabolized	Compound NOT metabolized	Compound NOT metabolized	Compound metabolized	Compound NOT metabolized		Compound NOT metabolized	Compound NOT metabolized	Compound metabolized	Compound NOT metabolized		Compound metabolized			Compound NOT metabolized	Compound metabolized
CN(C/C=C/C#CC(C)(C)C)Cc1cccc2ccccc12 [TERBINAFINE]	Compound NOT metabolized		Compound NOT metabolized	Compound NOT metabolized	Compound NOT metabolized	Compound NOT metabolized	Compound NOT metabolized	Compound metabolized	Compound NOT metabolized		Compound NOT metabolized	Compound metabolized		Compound NOT metabolized	Compound NOT metabolized	Compound NOT metabolized	Compound NOT metabolized		Compound NOT metabolized	

Reference: ChEMBL document CHEMBL5724914, “Linking interpersonal differences in gut microbiota composition and drug biotransformation activity” (2024)
